What was measured:
[1] = Metabolic stability assay in liver microsomes (HLM); format: in vitro ADME, human
Method: Metabolic stability assay in liver microsomes. The stabilities of CDD-2110, CDD-2211, CDD-2212, CDD-2807, and CDD-3348 in liver microsomes with/without Uridine Diphosphate Glucuronic Acid (UDP-GA, a cofactor of UDP-glucuronosyltransferases) were performed and half-life was calculated as previously reported (36). Briefly, each CDD compound (2.0 μM) was incubated in the mouse or human liver microsomes (0.5 mg protein/mL) at 37°C in 1× PBS fortified with NADPH (1.0 mM) and with/without UDP-GA (2.5 mM). Alamethicin (25 µg/mL) as a pore forming agent was used for the glucuronidation (Table S2A). The samples were collected at specific time-points 0, 30, and 60 min in duplicate. The reactions were terminated by adding equivalent volume of ice-cold methanol (CH3OH) and vortexed. After centrifugation at 15000 g for 10 min, 3.0 μL of the supernatant was analyzed by Thermo TSQ Quantis MS coupled with a Thermo Vanquish UHPLC (San Jose, CA) equipped with a Luna C18 column (1 mm × 50 mm, 1.6 µm, Phenomenex, Torrance, CA). The column temperature was maintained at 40°C. CDD-2807 was monitored under the selected reaction monitoring (SRM) mode coupled with a positive electrospray ionization (ESI) source. The SRM ion pairs were 447→321 for CDD-2807.

CLK2 = CLK2 (Homo sapiens, UniProt P49760); test: NanoBRET K192 assay (Promega); format: cell-based; parameters: host or cells: HEK293 (HEK293T cultured); settings: HEK293 cells
Method: (§1) NanoBRET Target Engagement K192 assay. HEK293 cells (ATCC) were cultured in DMEM (Gibco) + 10% FBS (Seradigm) and incubated in a humidified 37°C/5% CO2 incubator. The NanoBRET Target Engagement K192 Kinase Selectivity System (Promega) contains 192 unique transfection-ready NanoLuc/Kinase fusions, pre-diluted in either transfection carrier DNA or relevant cyclin DNA. These NanoLuc/Kinase fusion constructs were transfected into HEK293 cells using Fugene HD (Promega) according to the manufacturer’s protocol. Briefly, 10 µL of a 20 µg/mL DNA solution was added to white, TC-treated 96-well assay plates (Corning), followed by 30 µL of a diluted Fugene HD solution (20 µL Fugene/1 mL Opti-MEM). After transfection complex formation, HEK293 cells were resuspended at 3.3 × 105 c/mL in Opti-MEM + 1% FBS and added at a volume of 60 µL per well, to result in approximately 20000 cells/well. Cells were incubated in a humidified 37°C/5% CO2 incubator for 20 hours. Tracer K-10 (Promega) was prepared at a 100× concentration in DMSO (Sigma) and diluted to a working concentration of 10× in tracer dilution buffer (12.5 mM HEPES, 31.25% PEG400, pH 7.5) (Promega). Test compounds were prepared as concentrated stock solutions in DMSO and diluted in Opti-MEM to prepare 10× working stocks. Cells were equilibrated with test compounds and Tracer K-10 for 2 hours prior to BRET measurements. For target engagement analysis, Tracer K-10 was added to cells at one of 4 […]
(§2) manufacturer’s protocol. To measure BRET, NanoBRET NanoGlo Substrate and Extracellular NanoLuc Inhibitor (Promega) were added according to the manufacturer’s protocol, and filtered luminescence was measured on a GloMax Discover luminometer equipped with 450 nm BP filter (donor) and 600 nm LP filter (acceptor), using 0.5 s integration time. Milli-BRET units are calculated by multiplying the raw BRET units by 1000.
(§3) For Fractional Occupancy determination, the following equation was used:
(§4) % Occupancy = [1-(X-Z)/(Y-Z)]×100
(§5) Where X = BRET in the presence of the test compound and Tracer K10, Y = BRET in the presence of Tracer K10 only, and Z = Full occupancy, or BRET in the absence of the test compound and […]
(§6) Tracer K10. […]

CLK1 = CLK1 (Homo sapiens, UniProt P49759); test: NanoBRET K192 assay (Promega); format: cell-based; parameters: host or cells: HEK293 (HEK293T cultured); settings: HEK293 cells
Method: as §1, §2, §3, §4, §5, §6

RET = RET (Homo sapiens, UniProt P07949); test: NanoBRET K192 assay (Promega); format: cell-based; parameters: host or cells: HEK293 (HEK293T cultured); settings: HEK293 cells
Method: as §1, §2, §3, §4, §5, §6

CLK4 = CLK4 (Homo sapiens, UniProt Q9HAZ1); test: NanoBRET K192 assay (Promega); format: cell-based; parameters: host or cells: HEK293 (HEK293T cultured); settings: HEK293 cells
Method: as §1, §2, §3, §4, §5, §6

[2] = Alanine transaminase (ALT) and aspartate transaminase (AST) assays in serum; format: in vivo, mice
Method: Alanine transaminase (ALT) and aspartate transaminase (AST) assays. On day 45 of protocol 1 and day 7 and day 63 of protocol 2, three mice from each protocol were euthanized, and blood was collected through cardiac puncture. The serum was isolated by centrifuging the whole blood samples at 1500 g for 10 min and then maintained on wet ice before analysis. ALT and AST levels were measured in duplicates using assay kits (StanBio, Boerne, TX) according to the manufacturer's instructions. ALT and AST levels were determined using the rate of NADH oxidation, which was quantified by measuring absorbance at 340 nm using a CLARIOstar plate reader (BMG Labtech in Cary, NC). ALT and AST were tested for significance at multiple collection time points, tests for significance included a test for normality (Shapiro-Wilk test) and following the test for normality were then analyzed using an unpaired t-test with significance determined by an alpha of P = 0.05. […]
any significant differences between groups.
Fertility analysis. Sexually mature male C57/129 hybrid mice were randomly assigned to either the vehicle control treatment or the CDD-2807 treatment groups. Drug formulation and injections were as follows: for protocol 1 mice receiving the 15 mg/kg CDD-2807 twice daily dosing had the compound dissolved in DMSO, which was injected at 5% of the final volume in 10% Captisol and water. For protocol 2 mice receiving a single daily dose of 50 mg/kg CDD-2807, the compound was dissolved in DMSO and injected at 5% in 20% Captisol and water. All injections were administered as i.p. injections, and for the 15 mg/kg CDD-2807 and DMSO control mice, the injections were delivered in the morning and the evening. Mice in the 50 mg/kg dosing received i.p. injections once in the evening. Weights were measured daily prior to drug administration and monitored throughout the entirety of the injection period. […]

Chain of RET (P07949 29-1114): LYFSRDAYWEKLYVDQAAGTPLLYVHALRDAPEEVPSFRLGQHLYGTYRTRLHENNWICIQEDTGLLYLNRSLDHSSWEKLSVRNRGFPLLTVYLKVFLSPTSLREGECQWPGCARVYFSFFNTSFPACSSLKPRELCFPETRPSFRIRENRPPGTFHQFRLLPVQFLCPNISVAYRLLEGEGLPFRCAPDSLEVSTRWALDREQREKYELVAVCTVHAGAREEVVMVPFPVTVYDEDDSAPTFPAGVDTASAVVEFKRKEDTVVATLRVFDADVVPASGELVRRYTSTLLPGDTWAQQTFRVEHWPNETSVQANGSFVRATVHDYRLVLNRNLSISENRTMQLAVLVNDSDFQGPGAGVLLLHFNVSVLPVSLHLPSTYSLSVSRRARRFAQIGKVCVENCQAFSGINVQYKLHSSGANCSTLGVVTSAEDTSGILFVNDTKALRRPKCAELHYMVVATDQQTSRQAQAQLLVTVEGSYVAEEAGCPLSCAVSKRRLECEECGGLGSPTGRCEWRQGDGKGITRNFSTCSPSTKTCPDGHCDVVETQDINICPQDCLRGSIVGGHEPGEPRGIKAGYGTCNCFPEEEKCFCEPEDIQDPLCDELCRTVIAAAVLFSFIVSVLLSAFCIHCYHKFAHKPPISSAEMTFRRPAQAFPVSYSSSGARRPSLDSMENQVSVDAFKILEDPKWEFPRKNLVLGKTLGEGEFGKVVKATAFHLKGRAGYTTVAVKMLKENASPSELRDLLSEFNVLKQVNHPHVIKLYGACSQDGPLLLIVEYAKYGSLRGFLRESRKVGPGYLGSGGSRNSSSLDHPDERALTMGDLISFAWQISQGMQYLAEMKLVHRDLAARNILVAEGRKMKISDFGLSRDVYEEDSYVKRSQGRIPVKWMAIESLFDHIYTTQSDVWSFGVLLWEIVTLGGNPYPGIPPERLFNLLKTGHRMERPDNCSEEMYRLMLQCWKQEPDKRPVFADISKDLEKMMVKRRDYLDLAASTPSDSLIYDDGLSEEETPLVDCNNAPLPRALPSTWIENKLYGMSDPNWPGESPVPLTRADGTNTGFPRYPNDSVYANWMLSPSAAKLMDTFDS
Chain of CLK4 (Q9HAZ1 whole entry): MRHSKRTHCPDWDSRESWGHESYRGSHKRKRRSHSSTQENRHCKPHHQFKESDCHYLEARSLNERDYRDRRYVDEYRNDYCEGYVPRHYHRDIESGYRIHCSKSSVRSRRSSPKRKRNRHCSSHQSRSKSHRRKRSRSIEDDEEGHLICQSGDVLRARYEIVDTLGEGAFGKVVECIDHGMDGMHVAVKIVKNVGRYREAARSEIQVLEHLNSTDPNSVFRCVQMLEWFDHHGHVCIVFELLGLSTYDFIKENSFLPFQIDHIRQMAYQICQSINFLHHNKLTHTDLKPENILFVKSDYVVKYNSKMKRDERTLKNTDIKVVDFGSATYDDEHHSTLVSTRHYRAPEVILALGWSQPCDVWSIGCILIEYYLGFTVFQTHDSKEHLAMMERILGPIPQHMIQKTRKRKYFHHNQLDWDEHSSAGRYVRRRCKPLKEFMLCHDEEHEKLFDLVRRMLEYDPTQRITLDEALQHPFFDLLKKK
Chain of CLK1 (P49759 whole entry): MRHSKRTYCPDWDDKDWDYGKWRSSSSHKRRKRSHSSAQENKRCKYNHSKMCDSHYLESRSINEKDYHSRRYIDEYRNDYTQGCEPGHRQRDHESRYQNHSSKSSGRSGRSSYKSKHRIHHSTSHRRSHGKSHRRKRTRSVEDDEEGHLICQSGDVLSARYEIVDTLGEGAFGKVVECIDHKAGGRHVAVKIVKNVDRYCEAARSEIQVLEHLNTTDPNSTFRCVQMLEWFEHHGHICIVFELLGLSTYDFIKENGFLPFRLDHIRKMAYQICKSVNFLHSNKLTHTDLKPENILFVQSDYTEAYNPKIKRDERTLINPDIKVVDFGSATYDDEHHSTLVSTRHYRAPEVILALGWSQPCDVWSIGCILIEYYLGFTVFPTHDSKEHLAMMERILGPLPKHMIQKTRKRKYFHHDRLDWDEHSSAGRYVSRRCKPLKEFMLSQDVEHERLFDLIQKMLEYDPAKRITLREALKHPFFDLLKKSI
Chain of CLK2 (P49760 whole entry, the tested form may be a part): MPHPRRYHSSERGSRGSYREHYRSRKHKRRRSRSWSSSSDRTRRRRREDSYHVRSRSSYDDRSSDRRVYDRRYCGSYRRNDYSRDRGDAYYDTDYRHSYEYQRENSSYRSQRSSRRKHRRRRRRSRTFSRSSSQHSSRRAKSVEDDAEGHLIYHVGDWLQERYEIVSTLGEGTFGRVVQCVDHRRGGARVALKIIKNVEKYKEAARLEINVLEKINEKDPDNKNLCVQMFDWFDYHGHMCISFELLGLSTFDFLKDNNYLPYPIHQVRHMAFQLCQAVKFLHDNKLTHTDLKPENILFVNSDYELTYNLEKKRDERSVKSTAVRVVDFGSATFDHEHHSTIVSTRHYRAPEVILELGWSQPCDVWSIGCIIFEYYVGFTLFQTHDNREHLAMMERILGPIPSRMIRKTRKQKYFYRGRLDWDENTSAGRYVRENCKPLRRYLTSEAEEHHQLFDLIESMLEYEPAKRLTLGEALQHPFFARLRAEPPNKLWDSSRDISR

## O=C(c1ccc2[nH]nc(C#Cc3ccccc3-c3ccccc3)c2c1)N1CC2(CCCNC2)C1 [CDD-2807]
[1]; Phase I metabolism
  Metabolic stability in HLM: ~ 10 hours
[1]; Phases I and II metabolism
  Metabolic stability in HLM: ~ 6 hours
[1]; human, liver microsomes, NADPH with UDP-GA (2.5 mM), alamethicin, read-out: HLM, t1/2, liver microsomes with glucuronidation
  half-life at 2 µM: 6.47 h
CLK2; HEK293, at 1 µM
  receptor occupancy at 1 µM: 89.7%
CLK2; at 1 µM
  NanoBRET K192 assay % Occupancy CLK2: > 80%
CLK1; HEK293, at 1 µM
  receptor occupancy at 1 µM: 83.5 ± 0.1%
CLK1; at 1 µM
  NanoBRET K192 assay % Occupancy CLK1: > 80%
RET; HEK293, at 1 µM
  receptor occupancy at 1 µM: 85.8 ± 0.2%
RET; at 1 µM
  NanoBRET K192 assay % Occupancy RET: > 80%
CLK4; HEK293, at 1 µM
  receptor occupancy at 1 µM: 94.7 ± 0.1%
CLK4; at 1 µM
  NanoBRET K192 assay % Occupancy CLK4: > 80%
[2]; Protocol 1, 45 Days
  ALT: 20.33 ± 5.30 IU/L
  AST: 35.80 ± 3.09 IU/L
[2]; Protocol 2, 7 Days
  ALT: 23.65 ± 2.50 IU/L
  AST: 21.66 ± 3.30 IU/L
[2]; Protocol 2, 63 Days
  ALT: 45.97 ± 11.04 IU/L
  AST: 29.76 ± 6.79 IU/L

Source: paper PMC11842024, “Reversible male contraception by targeted inhibition of serine/threonine kinase 33” (Science (New York, N.Y.), 2024)
